Results taken from patent US20070049564A1 (Wyeth, priority 2005, published 2007).
≈ marks a conversion by molar mass, not a printed value. Read-outs that look alike come from different tables or passages of the source.

Assays:
[1] = system: P. aeruginosa GC 2214; assay: MIC, broth microdilution; details: Pseudomonas aeruginosa
[2] = system: E. coli GC 2231; assay: MIC, broth microdilution; details: Escherichia coli
[3] = system: E. faecium GC 4556; assay: MIC, broth microdilution; details: Enterococcus faecium
Description: (§1) Antimicrobial susceptibility testing. The in vitro activities of the antibiotics are determined by the broth microdilution method as recommended by the National Committee for Clinical Laboratory Standards (NCCLS) (1). Mueller-Hinton II broth (MHBII)(BBL Cockeysville, Md.) is the medium employed in the testing procedures. Microtiter plates containing serial dilutions of each antimicrobial agent are inoculated with each organism to yield the appropriate density (10^5 CFU/ml) in a 100 μl final volume. The plates are incubated for 18-22 hours at 35° C. in ambient air.
(§2) Representative compounds were first incubated in mouse serum for an hour prior to the in vitro testing against a panel of selected gram-positive and gram-negative bacteria strains. All compounds were also pre-incubated in water for an hour prior to testing as control. Representative compounds of Formula I were incubated in human serum prior to MIC determination.

[4] = system: E. faecalis GC 2267; assay: MIC, broth microdilution; details: Enterococcus faecalis
[5] = system: E. coli GC 4560; assay: MIC, broth microdilution; details: Escherichia coli
[6] = system: E. coli GC 2235; assay: MIC, broth microdilution; details: Escherichia coli
[7] = system: E. coli GC 2203; assay: MIC, broth microdilution; details: Escherichia coli
[8] = system: Staph. aureus Smith; assay: In vivo activity (oral, iv; ED50) against Staph. aureus Smith in mice
Description: Representative examples of compounds of Formula I were tested for the oral efficacy using S. aureus Smith in mice.

[9] = system: E. coli GC 3226; assay: MIC, broth microdilution; details: Escherichia coli
[10] = system: S. aureus GC 2216; assay: MIC, broth microdilution; details: Staphylococcus aureus
[11] = system: S. aureus GC 6335; assay: MIC, broth microdilution; details: Staphylococcus aureus
[12] = system: S. pneumoniae* GC 4465; assay: MIC, broth microdilution; details: Streptococcus pneumoniae
Description: as §1, §2

[13] = system: E. coli GC 2270; assay: MIC, broth microdilution; details: Escherichia coli
[14] = system: E. coli GC 2271; assay: MIC, broth microdilution; details: Escherichia coli
[15] = system: E. coli GC 2232; assay: MIC, broth microdilution; details: Escherichia coli
[16] = system: E. faecalis GC 2242; assay: MIC, broth microdilution; details: Enterococcus faecalis
[17] = system: S. aureus GC 6467; assay: MIC, broth microdilution; details: Staphylococcus aureus
Description: as §1
Representative compounds were first incubated in mouse serum for an hour prior to the in vitro testing against a panel of selected gram-positive and gram-negative bacteria strains. All compounds were also pre-incubated in water for an hour prior to testing as control.

[18] = system: S. agalactiae GC 4564; assay: MIC, broth microdilution; details: Streptococcus agalactiae
[19] = system: E. coli GC 4559; assay: MIC, broth microdilution; details: Escherichia coli
Description: as §1, §2

[20] = system: S. typhimurium GC 2172; assay: MIC, broth microdilution; details: Salmonella enterica, TYPHIMURIUM

CCCN(CC(=O)Nc1cc(N(C)C)c2c(c1O)C(=O)C1=C(O)[C@]3(O)C(=O)C(C(N)=O)=C(O)C(N(C)C)C3CC1C2)C(=O)OCc1oc(=O)oc1-c1ccccc1 (stereo in doubt) [Example 110, (2-oxo-5-phenyl-1,3-dioxol-4-yl)methyl 2-{[(7R,10aS)-9-(aminocarbonyl)-4,7-bis(dimethylamino)-1,8,10a,11-tetrahydroxy-10,12-dioxo-5,5a,6,6a,7,10,10a,12-octahydrotetracen-2-yl]amino}-2-oxoethyl(propyl)carbamate]
MIC ([1]; GC2214, pre-incubation in mouse serum): > 64 µg/mL
MIC ([1]; GC2214, pre-incubation in water): > 64 µg/mL
MIC ([2]; GC2231, pre-incubation in mouse serum): 4 µg/mL (≈ 5.06 µM)
MIC ([2]; GC2231, pre-incubation in water): 8 µg/mL (≈ 10.1 µM)
MIC ([3]; GC4556, pre-incubation in mouse serum): 1 µg/mL (≈ 1.27 µM)
MIC ([3]; GC4556, pre-incubation in water): 2 µg/mL (≈ 2.53 µM)
MIC ([4]; GC2267, pre-incubation in mouse serum): 8 µg/mL (≈ 10.1 µM)
MIC ([4]; GC2267, pre-incubation in water): 4 µg/mL (≈ 5.06 µM)
MIC ([5]; GC4560, pre-incubation in mouse serum): 0.25 µg/mL (≈ 0.317 µM)
MIC ([5]; GC4560, pre-incubation in water): 0.5 µg/mL (≈ 0.633 µM)
MIC ([6]; GC2235, pre-incubation in mouse serum): 0.5 µg/mL (≈ 0.633 µM)
MIC ([6]; GC2235, pre-incubation in water): 1 µg/mL (≈ 1.27 µM)
MIC ([7]; GC2203, pre-incubation in mouse serum): 1 µg/mL (≈ 1.27 µM)
MIC ([7]; GC2203, pre-incubation in water): 4 µg/mL (≈ 5.06 µM)
ED50 ([8]; Staphylococcus aureus, in Mus musculus, po, read-out: ED50 Staph Smith SOD): 31.9 mg/kg
ED50 ([8]; iv, read-out: ED50 Staph Smith SIV): 0.6 mg/kg
MIC ([9]; GC3226, pre-incubation in mouse serum): 2 µg/mL (≈ 2.53 µM)
MIC ([9]; GC3226, pre-incubation in water): 4 µg/mL (≈ 5.06 µM)
MIC ([10]; GC2216, pre-incubation in mouse serum): 2 µg/mL (≈ 2.53 µM)
MIC ([10]; GC2216, pre-incubation in water): 4 µg/mL (≈ 5.06 µM)
MIC ([11]; GC6335, pre-incubation in mouse serum): 8 µg/mL (≈ 10.1 µM)
MIC ([11]; GC6335, pre-incubation in water): 8 µg/mL (≈ 10.1 µM)
MIC ([12]; pre-incubation in mouse serum): 0.25 µg/mL (≈ 0.317 µM)
MIC ([12]; pre-incubation in water): 0.12 µg/mL (≈ 0.152 µM)
MIC ([13]; GC2270, pre-incubation in mouse serum): 1 µg/mL (≈ 1.27 µM)
MIC ([13]; GC2270, pre-incubation in water): 1 µg/mL (≈ 1.27 µM)
MIC ([14]; GC2271, pre-incubation in mouse serum): 1 µg/mL (≈ 1.27 µM)
MIC ([14]; GC2271, pre-incubation in water): 2 µg/mL (≈ 2.53 µM)
MIC ([15]; GC2232, pre-incubation in mouse serum): 1 µg/mL (≈ 1.27 µM)
MIC ([15]; GC2232, pre-incubation in water): 2 µg/mL (≈ 2.53 µM)
MIC ([16]; GC2242, pre-incubation in mouse serum): 1 µg/mL (≈ 1.27 µM)
MIC ([16]; GC2242, pre-incubation in water): 1 µg/mL (≈ 1.27 µM)
MIC ([17]; GC6467, pre-incubation in mouse serum): 32 µg/mL (≈ 40.5 µM)
MIC ([17]; GC6467, pre-incubation in water): > 64 µg/mL
MIC ([18]; GC4564, pre-incubation in mouse serum): 0.25 µg/mL (≈ 0.317 µM)
MIC ([18]; GC4564, pre-incubation in water): 0.25 µg/mL (≈ 0.317 µM)
MIC ([19]; GC4559, pre-incubation in mouse serum): 2 µg/mL (≈ 2.53 µM)
MIC ([19]; GC4559, pre-incubation in water): 2 µg/mL (≈ 2.53 µM)
MIC ([20]; pre-incubation in mouse serum): 64 µg/mL (≈ 81 µM)
MIC ([20]; pre-incubation in water): > 64 µg/mL
